Here are results for 29 compounds from patent US20240158392A1 (Janssen Biotech, Inc., priority 2021, published 2024).

The target of the experiment is SIK2 (Homo sapiens, UniProt Q9H0K1). In words: SIK2 Enzymatic Assay High Version 2 (High ATP). In kind it is biochemical. The procedure, abridged: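 At room temperature, enzyme (6 nM, 2× final) was preincubated with compound for 30 min, then 6 mM ATP and 400 μM HDAC5tide (both 2× final) were added for 2 h. ADP formed was measured by ADP-Glo Max (2 h reagent, 1 h detection) using luminescence.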
SIK2, sequence (Q9H0K1 whole entry, species assumed): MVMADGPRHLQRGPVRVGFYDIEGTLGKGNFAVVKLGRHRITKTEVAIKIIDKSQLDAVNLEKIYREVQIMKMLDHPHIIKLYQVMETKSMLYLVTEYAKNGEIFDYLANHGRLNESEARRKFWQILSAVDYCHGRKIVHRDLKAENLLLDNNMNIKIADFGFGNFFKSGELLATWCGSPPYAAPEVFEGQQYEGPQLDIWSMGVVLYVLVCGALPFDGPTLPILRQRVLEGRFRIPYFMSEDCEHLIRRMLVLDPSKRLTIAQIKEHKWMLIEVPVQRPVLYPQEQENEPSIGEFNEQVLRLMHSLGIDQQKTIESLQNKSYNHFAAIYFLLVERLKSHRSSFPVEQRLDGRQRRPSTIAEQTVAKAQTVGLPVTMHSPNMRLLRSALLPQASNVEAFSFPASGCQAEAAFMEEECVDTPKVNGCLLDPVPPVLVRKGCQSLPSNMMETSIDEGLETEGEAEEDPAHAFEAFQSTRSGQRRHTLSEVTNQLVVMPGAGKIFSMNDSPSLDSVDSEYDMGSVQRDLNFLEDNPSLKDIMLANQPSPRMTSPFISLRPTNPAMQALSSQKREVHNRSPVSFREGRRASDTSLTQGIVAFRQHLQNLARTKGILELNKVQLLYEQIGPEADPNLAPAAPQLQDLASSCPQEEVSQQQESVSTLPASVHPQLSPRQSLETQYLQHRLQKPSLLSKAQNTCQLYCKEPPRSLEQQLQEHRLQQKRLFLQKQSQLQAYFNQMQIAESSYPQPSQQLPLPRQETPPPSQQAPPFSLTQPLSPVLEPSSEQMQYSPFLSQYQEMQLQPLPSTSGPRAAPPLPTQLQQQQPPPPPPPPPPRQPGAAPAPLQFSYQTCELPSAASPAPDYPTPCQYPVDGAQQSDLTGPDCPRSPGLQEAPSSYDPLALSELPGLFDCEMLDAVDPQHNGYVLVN

[1] abbreviates: enzyme 6 nM, 6 mM ATP and 400 μM HDAC5tide (each 2× final concentration), 30 minutes pre-incubation, 2 hours, ADP-Glo Max luminescence, read-out: SIK2 high ATP IC50 (μM) (Test Example 2).

Each structure is given as a SMILES string. Read-outs that look alike come from different tables or passages of the source. A value given as a limit tells only on which side of the number the result lay.

By IC50 is commonly meant the concentration at which inhibition is half-maximal.

On to `Cc1cc(-c2ccn3nc(Nc4cnccn4)cc3c2)c(O[C@H]2C[C@H]3COC[C@@H](C2)N3)nn1` [Example 486, 5-[6-methyl-3-[[(1S,5R)-3-oxa-9-azabicyclo[3.3.1]nonan-7-yl]oxy]pyridazin-4-yl]-N-pyrazin-2-yl-pyrazolo[1,5-a]pyridin-2-amine], for which the IC50 amounted to 0.0285 µM.

On to `CC(=O)O[C@H]1CC[C@H](Oc2nnc(C)cc2-c2ccn3nc(Nc4cc(C)nc(C)n4)cc3c2)CC1` [Example 487, [4-[4-[2-[(2,6-dimethylpyrimidin-4-yl)amino]pyrazolo[1,5-a]pyridin-5-yl]-6-methyl-pyridazin-3-yl]oxycyclohexyl] acetate], for which the IC50 under setting [1] worked out at 0.0238 µM.

Consider `CN1CC(Oc2cnc(Cl)cc2-c2ccn3nc(NC(=O)C4CC4)cc3c2)C1` [Example 491, N-[5-[2-chloro-5-(1-methylazetidin-3-yl)oxy-4-pyridyl]pyrazolo[1,5-a]pyridin-2-yl]cyclopropanecarboxamide], for which the IC50 under setting [1] came out at 0.0152 µM.

`O=C(Nc1cc2cc(-c3cc(Cl)ncc3O[C@@H]3C[C@H]4COC[C@@H](C3)N4)ccn2n1)C1CC1` [Example 492, N-[5-[2-chloro-5-[[(1S,5R)-3-oxa-9-azabicyclo[3.3.1]nonan-7-yl]oxy]-4-pyridyl]pyrazolo[1,5-a]pyridin-2-yl]cyclopropanecarboxamide] came in with an IC50 of 0.0516 µM.

Take `Cc1cc(Nc2cc3cc(-c4cc(C(F)F)ncc4OCC(C)(C)O)ccn3n2)nc(C)n1` [Example 493, 1-[[6-(difluoromethyl)-4-[2-[(2,6-dimethylpyrimidin-4-yl)amino]pyrazolo[1,5-a]pyridin-5-yl]-3-pyridyl]oxy]-2-methyl-propan-2-ol]: under setting [1], the IC50 was found to be 0.0662 µM.

Turning to `Cc1cc(Nc2cc3cc(-c4cc(C(F)(F)F)ncc4OCC(C)(C)C#N)ccn3n2)nc(C)n1` [Example 494, 3-[[4-[2-[(2,6-dimethylpyrimidin-4-yl)amino]pyrazolo[1,5-a]pyridin-5-yl]-6-(trifluoromethyl)-3-pyridyl]oxy]-2,2-dimethyl-propanenitrile], the concentration for half-maximal inhibition (IC50) under setting [1] was determined as 0.00254 µM.

The compound `Cc1cc(Nc2cc3cc(-c4cc(Cl)ncc4O[C@@H]4[C@@H]5CO[C@H]4CN5)ccn3n2)nc(C)n1` [Example 495, 5-[2-chloro-5-[[(1S,4S,7R)-2-oxa-5-azabicyclo[2.2.1]heptan-7-yl]oxy]-4-pyridyl]-N-(2,6-dimethylpyrimidin-4-yl)pyrazolo[1,5-a]pyridin-2-amine] returned an IC50 of 0.0134 µM.

Consider `COc1cc(-c2ccn3nc(Nc4cc(C)nc(C)n4)cc3c2)c(OC[C@@H]2CNCCO2)cn1` [Example 496, N-(2,6-dimethylpyrimidin-4-yl)-5-[2-methoxy-5-[[(2S)-morpholin-2-yl]methoxy]-4-pyridyl]pyrazolo[1,5-a]pyridin-2-amine], for which the IC50 under setting [1] was 0.00143 µM.

On to `Cc1cc(Nc2cc3cc(-c4cc(Cl)ncc4OC[C@@H]4CNCCO4)ccn3n2)nc(C)n1` [Example 497, 5-[2-chloro-5-[[(2S)-morpholin-2-yl]methoxy]-4-pyridyl]-N-(2,6-dimethylpyrimidin-4-yl)pyrazolo[1,5-a]pyridin-2-amine], for which, under setting [1], the IC50 stood at 0.0176 µM.

As to `COc1cc(-c2ccn3nc(Nc4cc(C)nc(C)n4)cc3c2)c(OC[C@H]2OCC[C@@H]2O)cn1` [Example 498, (2R,3S)-2-[[4-[2-[(2,6-dimethylpyrimidin-4-yl)amino]pyrazolo[1,5-a]pyridin-5-yl]-6-methoxy-3-pyridyl]oxymethyl]tetrahydrofuran-3-ol], under setting [1], the IC50 was 0.0414 µM.

For `Cc1cc(Nc2cc3cc(-c4cc(OCC(F)(F)F)ncc4OC[C@H]4OCC[C@@H]4O)ccn3n2)nc(C)n1` [Example 499, (2R,3S)-2-[[4-[2-[(2,6-dimethylpyrimidin-4-yl)amino]pyrazolo[1,5-a]pyridin-5-yl]-6-(2,2,2-trifluoroethoxy)-3-pyridyl]oxymethyl]tetrahydrofuran-3-ol], under setting [1], the IC50 came out at 0.00352 µM.

Turning to `Cc1cc(Nc2cc3cc(-c4cc(OCC#N)ncc4OC[C@H]4OCC[C@@H]4O)ccn3n2)nc(C)n1` [Example 500, 2-[[4-[2-[(2,6-dimethylpyrimidin-4-yl)amino]pyrazolo[1,5-a]pyridin-5-yl]-5-[[(2R,3S)-3-hydroxytetrahydrofuran-2-yl]methoxy]-2-pyridyl]oxy]acetonitrile], the IC50 under setting [1] is 0.0454 µM.

For `CNc1cc(-c2ccn3nc(Nc4cc(C)nc(C)n4)cc3c2)c(OC[C@@H]2CNCCO2)cn1` [Example 501, N-(2,6-dimethylpyrimidin-4-yl)-5-[2-(methylamino)-5-[[(2S)-morpholin-2-yl]methoxy]-4-pyridyl]pyrazolo[1,5-a]pyridin-2-amine], under setting [1], the IC50 was found to be 0.00172 µM.

Take `Cc1cc(Nc2cc3cc(-c4cc(OC(F)F)ncc4OC[C@@H]4CNCCO4)ccn3n2)nc(C)n1` [Example 502, 5-[2-(difluoromethoxy)-5-[[(2S)-morpholin-2-yl]methoxy]-4-pyridyl]-N-(2,6-dimethylpyrimidin-4-yl)pyrazolo[1,5-a]pyridin-2-amine]: the IC50 under setting [1] is 0.00682 µM.

With `Cc1cc(-c2ccc3nc(NC(=O)C4CC4)cn3c2)c(O[C@H]2CC[C@H](O)CC2)cn1` [Example 504, N-[6-[5-(4-hydroxycyclohexoxy)-2-methyl-4-pyridyl]imidazo[1,2-a]pyridin-2-yl]cyclopropanecarboxamide], the IC50 under setting [1] was < 0.000847 µM.

The compound `Cc1cc(-c2cn3cc(NC(=O)C4CC4)nc3cn2)c(O[C@H]2C[C@H]3COC[C@@H](C2)N3)cn1` [Example 505, N-[6-[2-methyl-5-[[(1S,5R)-3-oxa-9-azabicyclo[3.3.1]nonan-7-yl]oxy]-4-pyridyl]imidazo[1,2-a]pyrazin-2-yl]cyclopropanecarboxamide] gave an IC50 of 0.012 µM.

Consider `Cc1cc(-c2cn3cc(Nc4cc(C)nc(C)n4)nc3cn2)c(O[C@H]2CC[C@@H](O)CC2)cn1` [Example 506, 4-[[4-[2-[(2,6-dimethylpyrimidin-4-yl)amino]imidazo[1,2-a]pyrazin-6-yl]-6-methyl-3-pyridyl]oxy]cyclohexanol], for which, under setting [1], the half-inhibitory concentration (IC50) is 0.0178 µM.

As for `Cc1cc(-c2cn3cc(Nc4cc(C)nc(C)n4)nc3cn2)c(O[C@H]2CC[C@H](O)CC2)cn1` [Example 507, 4-[[4-[2-[(2,6-dimethylpyrimidin-4-yl)amino]imidazo[1,2-a]pyrazin-6-yl]-6-methyl-3-pyridyl]oxy]cyclohexanol], under setting [1], the IC50 worked out at 0.0297 µM.

On to `Cc1cc(-c2ccn3nc(NC(=O)C4CC4)cc3c2)c(O[C@H]2CNC2(C)C)cn1` [Example 510, N-[5-[5-[(3S)-2,2-dimethylazetidin-3-yl]oxy-2-methyl-4-pyridyl]pyrazolo[1,5-a]pyridin-2-yl]cyclopropanecarboxamide], for which the IC50 under setting [1] was 0.0614 µM.

Turning to `Cc1cc(-c2ccn3nc(Nc4cnn(C(C)C)c4)cc3c2)c(OC2CN(C)C2)cn1` [Example 511, N-(1-isopropylpyrazol-4-yl)-5-[2-methyl-5-(1-methylazetidin-3-yl)oxy-4-pyridyl]pyrazolo[1,5-a]pyridin-2-amine], under setting [1], the IC50 turned out to be 0.0683 µM.

Regarding `Cc1cc(-c2ccn3nc(NC(=O)C4CC4)cc3c2)c(OC[C@@H]2CCN2C)cn1` [Example 512, N-[5-[2-methyl-5-[[(2S)-1-methylazetidin-2-yl]methoxy]-4-pyridyl]pyrazolo[1,5-a]pyridin-2-yl]cyclopropanecarboxamide], it took 0.0347 µM to reach half-maximal inhibition (IC50).

With `Cc1cc(-c2ccn3nc(Nc4cccnn4)cc3c2)c(OC[C@@H]2CN[C@H](C)CO2)cn1` [Example 513, 5-[2-methyl-5-[[(2S,5R)-5-methylmorpholin-2-yl]methoxy]-4-pyridyl]-N-pyridazin-3-yl-pyrazolo[1,5-a]pyridin-2-amine], the IC50 under setting [1] was determined as 0.0275 µM.

`Cc1cc(-c2ccn3nc(Nc4cccnn4)cc3c2)c(O[C@H]2C[C@H]3CC[C@@H](C2)N3C)cn1` [Example 514, 5-[2-methyl-5-[[(1S,5R)-8-methyl-8-azabicyclo[3.2.1]octan-3-yl]oxy]-4-pyridyl]-N-pyridazin-3-yl-pyrazolo[1,5-a]pyridin-2-amine] gave an IC50 of 0.0303 µM.

`Cc1cc(-c2ccn3nc(Nc4cnccn4)cc3c2)c(OC[C@@H]2CN(C)CCO2)cn1` [Example 515, 5-[2-methyl-5-[[(2S)-4-methylmorpholin-2-yl]methoxy]-4-pyridyl]-N-pyrazin-2-yl-pyrazolo[1,5-a]pyridin-2-amine]: the IC50 under setting [1] turned out to be 0.000864 µM.

`Cc1cc(-c2ccn3nc(NC(=O)C4CC4)cc3c2)c(O[C@H]2C[C@@](C)(N)C2)cn1` [Example 517, N-[5-[5-(3-amino-3-methyl-cyclobutoxy)-2-methyl-4-pyridyl]pyrazolo[1,5-a]pyridin-2-yl]cyclopropanecarboxamide] showed an IC50 of 0.016 µM.

With `Cc1cc(-c2ccn3nc(Nc4cccnn4)cc3c2)c(OC[C@@H]2CNCC(C)(C)O2)cn1` [Example 518, 5-[5-[[(2S)-6,6-dimethylmorpholin-2-yl]methoxy]-2-methyl-4-pyridyl]-N-pyridazin-3-yl-pyrazolo[1,5-a]pyridin-2-amine], the IC50 under setting [1] is 0.0559 µM.

With `Cc1cc(-c2ccn3nc(Nc4cccnn4)cc3c2)c(O[C@H]2C[C@H](N)C2)cn1` [Example 520, 5-[5-(3-aminocyclobutoxy)-2-methyl-4-pyridyl]-N-pyridazin-3-yl-pyrazolo[1,5-a]pyridin-2-amine], the IC50 under setting [1] stood at 0.0445 µM.

Take `Cc1cc(-c2ccn3nc(Nc4cc(C)nc(C)n4)cc3c2)c(OC[C@@H]2CCN2C)cn1` [Example 521, N-(2,6-dimethylpyrimidin-4-yl)-5-[2-methyl-5-[[(2S)-1-methylazetidin-2-yl]methoxy]-4-pyridyl]pyrazolo[1,5-a]pyridin-2-amine]: half-maximal inhibition (IC50) required 0.0607 µM.

For the compound `Cc1cc(-c2ccn3nc(Nc4ccc(C)nn4)cc3c2)c(O[C@@H]2[C@@H]3CO[C@H]2CN3)cn1` [Example 523, 5-[2-methyl-5-[[(1S,4S,7R)-2-oxa-5-azabicyclo[2.2.1]heptan-7-yl]oxy]-4-pyridyl]-N-(6-methylpyridazin-3-yl)pyrazolo[1,5-a]pyridin-2-amine], the IC50 turned out to be 0.00462 µM.
